Test results published in PMC6829886, “Inhibition of Non-Small Cell Lung Cancer Cells by Oxy210, an Oxysterol-Derivative that Antagonizes TGFβ and Hedgehog Signaling” (Cells, 2019).

Columns and labels:
A549 cells [1] = assay: TGFβ-induced drug resistance (carboplatin) assay, cell counting; format: cell-based, human; details: TGFβ1 ± Oxy210 (5 μM) 3 days, then 20 μM CP 4 days
Procedure: A549 and H2030 cells cultured in RPMI 1640 containing 5% FBS in 12 well-plates at 20% confluence were treated with Oxy210 for 6 days and then trypsinized, spun down and resuspended in fresh medium. For the Carboplatin (CP) and Oxy210 co-treatment experiments, A549 cells cultured in RPMI 1640 containing 2% FBS in 12 well-plates at 20% confluence were treated with CP at different concentrations in the presence or absence of Oxy210 for 6 days. For the TGFβ-induced drug resistance assay, A549 cells cultured in RPMI 1640 containing 2% FBS in 12 well-plates at 10% confluence were pre-treated with TGFβ1 alone or together with Oxy210 for 3 days, and then treated with 20 μM CP for 4 days. An aliquot of cell suspension was applied to a hemocytometer and the cells were then counted under a light microscope.
Figure 10 Effect of Oxy210 on TGFβ-induced resistance to carboplatin. A549 cells were treated with the agents as indicated (in front of --) in RPMI 1640 containing 2% FBS for 3 days, and then treated with the agents as indicated (after --) for 4 days. The cells were then trypsinized and counted. Data from a representative experiment are reported as the mean of triplicate determinations ± SD (## p < 0.01 vs. Control--Control; ++ p < 0.01 vs. Control--CP; ** p < 0.01 vs. TGFβ--CP).

A549 cells [2] = assay: Matrigel invasion assay; format: cell-based, human; details: Matrigel chambers, 24 h
Procedure: Invasion assays were performed using 24-well Matrigel invasion chambers (Corning, Corning, NY, USA), with the protocol provided by the manufacturer. A549 cells in 6-well plate starved in RPMI 1640 containing 0.1% FBS for 24 h were pre-treated with Oxy210 or DMSO for 2 h. 2 × 10^4 cells were seeded in each of the upper chambers containing RPMI 1640 supplemented with 0.1% FBS and the test agents. Each of the lower chambers contained RPMI 1640 supplemented with 5% FBS and the corresponding test agents. The cells were cultured for 24 h before assessment of cell invasion. Non-invaded cells in the upper surface of the membrane were removed using a cotton swab and the invaded cells in the lower surface were fixed and stained with 100% methanol and 0.4% trypan blue, respectively. The invaded cells were imaged and counted under the microscope at 40X total magnification.
Figure 9 Inhibition of TGFβ-induced invasive activity of A549 cells. In vitro invasion assays were performed using chambers with matrigel-coated membrane as described in the Materials and Methods section. (a) Images of invaded cells on the membranes. (b) Quantitative analysis of invasion of A549 cells induced by TGFβ in the absence or presence of Oxy210. Data from a representative experiment are reported as the mean of triplicate determinations ± SD (** p < 0.01 vs. TGFβ treated cells; ## p < 0.01 vs. control).

Human TGFBR1 = biological target: T1, Human TGFBR1 (Homo sapiens, UniProt P36897); assay: TGFβ receptor I kinase inhibition assay (Eurofins); format: biochemical; details: vs. positive controls Cdk1/2 Inhibitor III and PKR Inhibitor
T1 construct: Human TGFBR1 (amino acid 200 to end); purchased Eurofins
T1 sequence (P36897 200-503 limits assumed): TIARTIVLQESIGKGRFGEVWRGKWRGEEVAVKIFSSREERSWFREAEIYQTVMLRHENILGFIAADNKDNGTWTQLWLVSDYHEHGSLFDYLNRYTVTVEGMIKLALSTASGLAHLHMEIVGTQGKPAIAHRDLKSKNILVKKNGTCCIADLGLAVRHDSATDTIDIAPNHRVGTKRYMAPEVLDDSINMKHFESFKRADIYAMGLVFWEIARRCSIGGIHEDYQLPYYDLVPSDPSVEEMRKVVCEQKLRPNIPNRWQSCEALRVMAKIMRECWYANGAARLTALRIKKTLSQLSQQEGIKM
Procedure: Effect of Oxy210 on inhibition of TGFβ receptors I and II kinase activity was assessed by Eurofins (Celle-L’Evescault, France). TGFBR1 (h): Human TGFBR1 (amino acid 200 to end) was incubated with 8 mM MOPS pH 7.0, 0.2 mM EDTA, 1 mM MnCl2, 2 mg/mL casein, 10 mM Magnesium acetate and […] (specific activity and concentration as required). The reaction was initiated by the addition of the Mg/ATP mix. After incubation for 40 min at room temperature, the reaction was stopped by the addition of phosphoric acid to a concentration of 0.5%. 10 μL of the reaction was then spotted onto a P30 filtermat and washed four times for 4 min in 0.425% phosphoric acid and once in methanol prior to drying and scintillation counting. TGFBR2 (h): Human TGFBR2 (amino acid 188-end) was incubated with 20 mM Tris/HCl pH 8.5, 0.2 mM EDTA, 0.33 mg/mL MBP, 10 mM Magnesium acetate and [9-33P-ATP] (specific activity and concentration as required). The reaction was initiated by the addition of the Mg/ATP mix. After incubation for 120 min at room temperature, the reaction was stopped by the addition of phosphoric acid to a concentration of 0.5%. […]
Figure 11 Inhibition of TGFβ-induced Smad2/3 phosphorylation and transcriptional activity. […] Luciferase activity was measured and normalized to the Renilla luciferase activity. […]

C[C@]12CC[C@H]3[C@@H](CC=C4C[C@@H](O)CC[C@@]43C)[C@@H]1CC[C@@H]2[C@](C)(O)CCc1cccnc1 [Oxy210, (3S,8S,9S,10R,13S,14S,17S)-17-((R)-2-hydroxy-4-(pyridin-3-yl)butan-2-yl)-10,13-dimethyl-2,3,4,7,8,9,10,11,12,13,14,15,16,17-tetradecahydro-1H-cyclopenta[a]phenanthren-3-ol]
sensitivity to CP after TGFβ1 pre-treatment (TGFβ-induced CP resistance) (A549 cells [1]): fully restored CP drug sensitivity
TGFβ-induced invasive activity (A549 cells [2]): inhibited this invasive activity in a dose dependent manner
inhibitory activity on TβRI in functional kinase assay (Human TGFBR1): did not display significant inhibitory activity
